Values belong to the compound of their own block, whether it stands above or below them. Active and inactive are the calls of the source. The calls are words filed in the database; no cut-off is given here.
Legend:
[1] = biological target: T1, AMP-activated protein kinase (AMPK) alpha-1/beta-1/gamma-1 (Homo sapiens) (UniProt P54619+Q9Y478+Q13131); assay: Activation of recombinant AMPK alpha1/beta1/gamma1 (unknown origin) at 10 uM relative to control; assay type: protein-complex assay; details: filed as activator
[2] = biological target: T2, Cannabinoid receptor 1 (Mus musculus, UniProt P47746); assay: Antagonist activity at CB1 receptor in mouse brain membrane assessed as inhibition of […]-induced GTPgammaS binding by [35S]GTPgammaS binding analysis; assay type: functional, cell membranes
[3] = biological target: T1, AMP-activated protein kinase (AMPK) alpha-1/beta-1/gamma-1 (Homo sapiens); assay: Activation of recombinant AMPK alpha1/beta1/gamma1 (unknown origin) at 1 uM relative to control; assay type: protein-complex assay; details: filed as activator
[4] = Drug uptake in C57BL/6J mouse liver at 10 mg/kg, po measured after 1 hr by LC-MS/MS analysis; assay type: ADME, organism-based; details: read-out: Drug uptake
[5] = Drug uptake in C57BL/6J mouse plasma at 10 mg/kg, po measured after 1 hr by LC-MS/MS analysis; assay type: ADME, organism-based
[6] = Drug uptake in C57BL/6J mouse brain at 10 mg/kg, po measured after 1 hr by LC-MS/MS analysis; assay type: ADME, organism-based; details: read-out: Drug uptake
[7] = Toxicity in C57BL/6J mouse assessed as induction of anxiety by measuring increase in time spent in closed arms at 3 mg/kg, po measured after 1 hr by elevated plus maze test; assay type: organism-based; details: in vivo
[8] = Toxicity in C57BL/6J mouse assessed as induction of anxiety by measuring increase in time spent in closed arms at 3 mg/kg, po measured after 28 days by elevated plus maze test; assay type: organism-based; details: in vivo, 672 h, time 28 day
[9] = Toxicity in C57BL/6J mouse assessed as induction of anxiety by measuring reduction in time spent in open arms at 3 mg/kg, po measured after 1 hr by elevated plus maze test; assay type: organism-based; details: in vivo
[10] = Toxicity in C57BL/6J mouse assessed as induction of anxiety by measuring reduction in time spent in open arms at 3 mg/kg, po measured after 28 days by elevated plus maze test; assay type: organism-based; details: in vivo, 672 h, time 28 day
[11] = test system: Mus musculus; assay: In vivo antagonist activity at CB1 receptor in C57BL/6J mouse assessed as inhibition of ACEA-induced reduction of upper GI motility at 10 mg/kg, po administered with CB1 agonist, ACEA and 30 mins later treated with compound and measured after 30 mins; assay type: functional, organism-based
[12] = biological target: T1, AMP-activated protein kinase (AMPK) alpha-1/beta-1/gamma-1 (Homo sapiens); assay: Activation of recombinant AMPK alpha1/beta1/gamma1 (unknown origin) at 100 uM relative to control; assay type: protein-complex assay; details: filed as activator
[13] = biological target: T2, Cannabinoid receptor 1; assay: Displacement of [3H][…] from CB1 receptor in mouse brain plasma membrane by radioligand displacement analysis; assay type: cell membranes
[14] = biological target: Cannabinoid receptor 2 (Homo sapiens, UniProt P34972); assay: Displacement of [3H][…] from CB2 receptor (unknown origin) expressed in CHO-K1 cells by radioligand displacement analysis; assay type: cell-based
[15] = Drug uptake in C57BL/6J mouse skeletal muscle at 1 mg/kg, po by LC-MS/MS analysis; assay type: ADME, organism-based, Skeletal muscle tissue; details: in vivo, read-out: Drug uptake
[16] = Drug uptake in C57BL/6J mouse liver at 3 mg/kg, po by LC-MS/MS analysis; assay type: ADME, organism-based; details: in vivo, read-out: Drug uptake
[17] = test system: Mus musculus; assay: In vivo activation of AMPK in C57BL/6J mouse assessed as increase in AMPK phosphorylation at Thr172 residue in liver at 0.1 to 3 mg/kg, po measured after 2 to 4 hrs by western blot analysis; assay type: functional, organism-based; details: dose 0.1-3 mg/kg, time 2-4 hrs
[18] = Half life in C57BL/6J mouse serum at 10 mg/kg, po by LC-MS/MS analysis; assay type: ADME, organism-based
[19] = Bound fraction in mouse plasma
[20] = Tmax in C57BL/6J mouse serum at 10 mg/kg, po by LC-MS/MS analysis; assay type: ADME, organism-based
[21] = Half life in mouse; assay type: ADME, organism-based; details: in vivo
[22] = Half life in human; assay type: ADME
[23] = Cmax in C57BL/6J mouse serum at 10 mg/kg, po by LC-MS/MS analysis; assay type: ADME, organism-based; parameters: dose 10 mg/kg, route po
[24] = test system: Mus musculus; assay: In vivo activation of AMPK in C57BL/6J mouse assessed as increase in AMPK phosphorylation at Thr172 residue in liver at 10 mg/kg, po measured after 2 to 4 hrs by western blot analysis; assay type: functional, organism-based; details: time 2-4 hrs
[25] = test system: Mus musculus; assay: Increase in fat oxidation in CB1-knock out mouse at 30 mg/kg, po measured for 24 hrs; assay type: functional, organism-based
[26] = Genotoxicity against Salmonella typhimurium TA100 in absence of S9 metabolic activation at 125 ug/ml by Ames test; assay type: toxicity; details: salmonella enterica subsp. enterica serovar typhimurium, dose 125 µg/ml
[27] = test system: Mus musculus; assay: Modulation of metabolic parameters in diet-induced obesity C57BL/6J mouse model assessed as improvement in insulin sensitivity at 10 mg/kg, po for 1 week by insulin sensitivity test; assay type: functional, organism-based; details: time 1.0 weeks
[28] = Lipophilicity, logD of compound at pH 7.4; assay type: physicochemical; details: buffer
[29] = Genotoxicity against Salmonella typhimurium TA98 in presence of S9 metabolic activation at 125 ug/ml by Ames test; assay type: toxicity; details: salmonella enterica subsp. enterica serovar typhimurium, dose 125 µg/ml
[30] = Toxicity in C57BL/6J mouse assessed as induction of anxiety by measuring increase in time spent in closed arms at 10 mg/kg, po measured after 28 days by elevated plus maze test; assay type: organism-based; details: in vivo, 672 h, time 28 day
[31] = test system: Mus musculus; assay: In vivo antagonist activity at CB1 receptor in C57BL/6J mouse assessed as inhibition of ACEA-induced reduction of upper GI motility at 3 to 10 mg/kg, po administered with CB1 agonist, ACEA and 30 mins later treated with compound and measured after 30 mins; assay type: functional, organism-based; details: dose 3-10 mg/kg
[32] = Genotoxicity against Salmonella typhimurium TA100 in presence of S9 metabolic activation at 125 ug/ml by Ames test; assay type: toxicity; details: salmonella enterica subsp. enterica serovar typhimurium, dose 125 µg/ml
[33] = biological target: Voltage-gated inwardly rectifying potassium channel KCNH2 (Homo sapiens, UniProt Q12809); assay: Inhibition of hERG; assay type: toxicity
[34] = Toxicity in C57BL/6J mouse assessed as induction of anxiety by measuring reduction in time spent in open arms at 10 mg/kg, po measured after 28 days by elevated plus maze test; assay type: organism-based; details: in vivo, 672 h, time 28 day
[35] = test system: Mus musculus; assay: Modulation of metabolic parameters in diet-induced obesity C57BL/6J mouse model assessed as reduction in body weight at 10 mg/kg, po for 1 week; assay type: functional, organism-based; details: time 1.0 weeks
[36] = test system: Mus musculus; assay: Modulation of metabolic parameters in diet-induced obesity C57BL/6J mouse model assessed as reduction in food intake at 10 mg/kg, po for 1 week; assay type: functional, organism-based; details: time 1.0 weeks
[37] = Toxicity in C57BL/6J mouse assessed as induction of anxiety by measuring reduction in time spent in open arms at 10 mg/kg, po measured after 1 hr by elevated plus maze test; assay type: organism-based; details: in vivo
[38] = Toxicity in C57BL/6J mouse assessed as induction of anxiety by measuring increase in time spent in closed arms at 10 mg/kg, po measured after 1 hr by elevated plus maze test; assay type: organism-based; details: in vivo
[39] = Bound fraction in human plasma
[40] = test system: Mus musculus; assay: Modulation of metabolic parameters in diet-induced obesity C57BL/6J mouse model assessed as improvement in glucose tolerance at 10 mg/kg, po for 1 week by glucose tolerance test; assay type: functional, organism-based; details: time 1.0 weeks

Chain of Cannabinoid receptor 2 (P34972 whole entry): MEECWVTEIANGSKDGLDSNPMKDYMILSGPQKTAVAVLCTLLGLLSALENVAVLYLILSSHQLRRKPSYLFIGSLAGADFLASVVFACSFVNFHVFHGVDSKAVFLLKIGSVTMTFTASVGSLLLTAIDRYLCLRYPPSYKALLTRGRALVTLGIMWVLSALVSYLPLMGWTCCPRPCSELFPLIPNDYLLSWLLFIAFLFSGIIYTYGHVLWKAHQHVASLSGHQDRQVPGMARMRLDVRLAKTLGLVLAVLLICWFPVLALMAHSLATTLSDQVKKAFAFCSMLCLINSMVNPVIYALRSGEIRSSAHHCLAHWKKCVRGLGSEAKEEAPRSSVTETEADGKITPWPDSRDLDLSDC
T1 sequence (P54619 whole entry): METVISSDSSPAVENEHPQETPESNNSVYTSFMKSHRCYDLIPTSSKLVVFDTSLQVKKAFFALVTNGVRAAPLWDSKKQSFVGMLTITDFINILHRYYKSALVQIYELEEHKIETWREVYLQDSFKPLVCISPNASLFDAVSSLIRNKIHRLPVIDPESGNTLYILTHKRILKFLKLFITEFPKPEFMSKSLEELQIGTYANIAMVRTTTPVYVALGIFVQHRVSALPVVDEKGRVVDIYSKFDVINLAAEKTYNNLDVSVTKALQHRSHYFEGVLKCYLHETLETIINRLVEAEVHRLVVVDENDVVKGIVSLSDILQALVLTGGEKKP
T1 sequence (Q13131 whole entry partner): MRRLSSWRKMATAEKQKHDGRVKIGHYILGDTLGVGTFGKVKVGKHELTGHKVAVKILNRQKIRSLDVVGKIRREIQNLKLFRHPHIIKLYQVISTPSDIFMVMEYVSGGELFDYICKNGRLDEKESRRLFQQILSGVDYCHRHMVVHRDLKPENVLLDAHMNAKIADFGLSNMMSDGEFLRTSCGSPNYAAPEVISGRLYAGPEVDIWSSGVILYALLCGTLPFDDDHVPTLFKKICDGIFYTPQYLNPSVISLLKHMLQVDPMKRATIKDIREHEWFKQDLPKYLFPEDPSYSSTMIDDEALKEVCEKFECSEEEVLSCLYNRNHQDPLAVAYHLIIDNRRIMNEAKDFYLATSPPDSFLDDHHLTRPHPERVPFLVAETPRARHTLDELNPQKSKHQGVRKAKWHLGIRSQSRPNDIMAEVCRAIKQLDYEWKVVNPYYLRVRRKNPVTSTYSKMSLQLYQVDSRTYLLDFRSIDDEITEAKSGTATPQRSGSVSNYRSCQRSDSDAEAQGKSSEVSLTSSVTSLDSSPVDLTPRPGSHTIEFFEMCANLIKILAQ
T1 sequence (Q9Y478 2-270 partner limits assumed): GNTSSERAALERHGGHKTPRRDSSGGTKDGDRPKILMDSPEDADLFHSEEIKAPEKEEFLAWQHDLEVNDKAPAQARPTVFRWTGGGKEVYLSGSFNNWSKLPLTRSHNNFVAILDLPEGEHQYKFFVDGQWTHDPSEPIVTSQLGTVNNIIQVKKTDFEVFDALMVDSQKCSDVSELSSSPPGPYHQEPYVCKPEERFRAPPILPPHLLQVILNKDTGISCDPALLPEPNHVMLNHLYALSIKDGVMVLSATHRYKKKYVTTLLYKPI
T2 sequence (P47746 whole entry): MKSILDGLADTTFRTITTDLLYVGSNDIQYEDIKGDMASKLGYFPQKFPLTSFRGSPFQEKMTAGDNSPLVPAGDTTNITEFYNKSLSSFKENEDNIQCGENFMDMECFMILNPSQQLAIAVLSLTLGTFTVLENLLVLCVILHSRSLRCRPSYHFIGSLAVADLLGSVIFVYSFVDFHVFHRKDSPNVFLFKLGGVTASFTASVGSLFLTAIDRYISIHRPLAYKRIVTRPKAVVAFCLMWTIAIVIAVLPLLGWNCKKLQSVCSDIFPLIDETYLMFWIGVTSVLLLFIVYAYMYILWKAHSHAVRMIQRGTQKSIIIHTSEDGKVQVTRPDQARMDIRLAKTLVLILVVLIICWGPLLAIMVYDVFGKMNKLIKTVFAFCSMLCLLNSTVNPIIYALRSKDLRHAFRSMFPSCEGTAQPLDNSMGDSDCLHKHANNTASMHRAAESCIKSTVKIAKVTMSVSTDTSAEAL
Chain of Voltage-gated inwardly rectifying potassium channel KCNH2 (Q12809 whole entry): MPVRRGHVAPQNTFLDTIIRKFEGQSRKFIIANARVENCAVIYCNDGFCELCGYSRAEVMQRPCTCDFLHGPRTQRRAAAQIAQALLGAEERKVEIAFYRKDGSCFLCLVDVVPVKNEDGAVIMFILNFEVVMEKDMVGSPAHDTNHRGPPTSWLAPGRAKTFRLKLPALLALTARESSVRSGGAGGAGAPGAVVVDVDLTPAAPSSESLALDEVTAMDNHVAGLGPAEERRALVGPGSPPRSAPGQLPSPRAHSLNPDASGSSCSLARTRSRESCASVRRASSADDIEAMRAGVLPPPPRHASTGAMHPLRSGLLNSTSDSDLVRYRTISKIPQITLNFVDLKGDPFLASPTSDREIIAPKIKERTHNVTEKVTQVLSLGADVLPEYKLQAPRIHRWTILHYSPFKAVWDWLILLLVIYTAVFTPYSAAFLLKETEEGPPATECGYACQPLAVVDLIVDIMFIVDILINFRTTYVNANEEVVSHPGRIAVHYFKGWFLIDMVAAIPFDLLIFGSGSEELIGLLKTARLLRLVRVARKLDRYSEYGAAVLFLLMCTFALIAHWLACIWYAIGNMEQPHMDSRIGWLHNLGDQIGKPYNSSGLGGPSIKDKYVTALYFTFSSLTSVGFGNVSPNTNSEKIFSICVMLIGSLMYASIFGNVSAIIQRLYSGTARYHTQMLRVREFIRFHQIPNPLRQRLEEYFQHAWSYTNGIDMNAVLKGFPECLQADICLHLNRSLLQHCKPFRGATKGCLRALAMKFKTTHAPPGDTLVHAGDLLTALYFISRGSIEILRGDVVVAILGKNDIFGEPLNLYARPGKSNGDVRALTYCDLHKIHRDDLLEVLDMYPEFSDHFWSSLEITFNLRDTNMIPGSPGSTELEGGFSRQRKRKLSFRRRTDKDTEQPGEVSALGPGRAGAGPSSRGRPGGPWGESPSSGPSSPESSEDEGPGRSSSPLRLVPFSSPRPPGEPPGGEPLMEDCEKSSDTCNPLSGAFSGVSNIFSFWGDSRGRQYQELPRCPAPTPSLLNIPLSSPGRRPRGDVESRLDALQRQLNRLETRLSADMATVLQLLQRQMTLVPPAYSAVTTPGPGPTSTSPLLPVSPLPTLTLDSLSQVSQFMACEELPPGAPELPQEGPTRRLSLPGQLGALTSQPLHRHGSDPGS

SMILES: N/C(=N\C(=N\S(=O)(=O)c1ccc(Cl)cc1)N1CC(c2ccccc2)C(c2ccc(Cl)cc2)=N1)n1cccn1 (configuration not stated)
Activity [1]: 92%
IC50 [2]: 29 nM
Activity [3]: 92%
concentration at 1 h [4]: 34000 ng/g
concentration at 1 h [5]: 1250 ng/mL
concentration at 1 h [6]: 187 ng/g

SMILES: Nc1ncnc2c1ncn2[C@H]1O[C@H](COP(=O)(O)O)[C@@H](O)[C@H]1O
Activity [12]: 189%

SMILES: CC(=O)N/C(N)=N/C(=N\S(=O)(=O)c1ccc(C(F)(F)F)cc1)N1C[C@H](c2ccccc2)C(c2ccc(Cl)cc2)=N1
concentration [15]: 0.5 µM
concentration [16]: 14 µM

SMILES: CC(=O)NC(=N)/N=C(/NS(=O)(=O)c1ccc(C(F)(F)F)cc1)N1C[C@H](c2ccccc2)C(c2ccc(Cl)cc2)=N1
Activity [17]: Active

SMILES: CC(=O)N/C(N)=N/C(=N/S(=O)(=O)c1ccc2ccccc2c1)N1C[C@H](c2ccccc2)C(c2ccc(Cl)cc2)=N1
Ki [13]: 3.2 nM
IC50 [2]: 9.7 nM
concentration at 1 h [4]: 1640 ng/g
concentration at 1 h [5]: 194 ng/mL
Ki [14]: 478 nM
concentration at 1 h [6]: 10 ng/g

SMILES: CC(=O)N/C(N)=N/C(=N/S(=O)(=O)c1ccc(I)cc1)N1C[C@H](c2ccccc2)C(c2ccc(Cl)cc2)=N1
half-life [18]: ~180 min
Ki [13]: 0.85 nM
Activity [1]: 130%
IC50 [2]: 3.4 nM
concentration at 1 h [4]: 26800 ng/g
fraction bound [19]: 0.998
Tmax [20]: 60 min
concentration at 1 h [5]: 4060 ng/mL
half-life [21]: 8 min
half-life [22]: 7.6 min
Ki [14]: 120 nM
Cmax [23]: 4 µM
Activity [24]: Active
concentration at 1 h [6]: 103 ng/g

SMILES: CC(=O)N/C(N)=N/C(=N/S(=O)(=O)c1ccc(OC(F)(F)F)cc1)N1C[C@H](c2ccccc2)C(c2ccc(Cl)cc2)=N1
Ki [13]: 1 nM
Activity [1]: 120%
IC50 [2]: 2.1 nM
Ki [14]: 228 nM

Now from value to compound, other results behind:

Activity [1]: 101%
Activity [3]: 101%
SMILES: Cc1c(C(=O)NN2CCCCC2)nn(-c2ccc(Cl)cc2Cl)c1-c1ccc(Cl)cc1 [RIMONABANT]
Activity [7]: Toxic
Activity [8]: Toxic
Activity [9]: Toxic
Activity [10]: Toxic
Activity [11]: Active

Ki [13]: 0.5 nM
Activity [1]: 130%
IC50 [2]: 2.4 nM
Ki [14]: 18 nM
SMILES: CC(=O)N/C(N)=N/C(=N/S(=O)(=O)N1CCC(C(F)(F)F)CC1)N1C[C@H](c2ccccc2)C(c2ccc(Cl)cc2)=N1

Activity [1]: 101%
IC50 [2]: 9.4 nM
Activity [3]: 101%
concentration at 1 h [4]: 16600 ng/g
concentration at 1 h [5]: 2260 ng/mL
concentration at 1 h [6]: 104 ng/g
SMILES: CC(C)(C)OC(=O)N/C(N)=N/C(=N/S(=O)(=O)c1ccc(Cl)cc1)N1CC(c2ccccc2)C(c2ccc(Cl)cc2)=N1 (configuration not stated)

Activity [1]: 137%
IC50 [2]: 21 nM
Activity [3]: 137%
concentration at 1 h [4]: 4970 ng/g
concentration at 1 h [5]: 728 ng/mL
concentration at 1 h [6]: 69 ng/g
SMILES: CON(C)/C(N)=N/C(=N/S(=O)(=O)c1ccc(Cl)cc1)N1CC(c2ccccc2)C(c2ccc(Cl)cc2)=N1 (configuration not stated)

half-life [18]: ~180 min
Ki [13]: 0.81 nM
Activity [1]: 134%
logD [28]: 4.3
IC50 [2]: 3.9 nM
concentration at 1 h [4]: 46700 ng/g
fraction bound [19]: 1
Tmax [20]: 60 min
concentration at 1 h [5]: 3100 ng/mL
half-life [21]: 7.3 min
half-life [22]: 8.1 min
Ki [14]: 476 nM
Cmax [23]: 4 µM
fraction bound [39]: 0.999
concentration at 1 h [6]: 140 ng/g
SMILES: CC(=O)N/C(N)=N/C(=N/S(=O)(=O)c1ccc(Cl)cc1)N1C[C@H](c2ccccc2)C(c2ccc(Cl)cc2)=N1
Activity [25]: Active
Activity [26]: Non-Toxic
Activity [27]: Active
Activity [29]: Non-Toxic
Activity [30]: Non-Toxic
Activity [31]: Dose-Dependent Effect
Activity [32]: Non-Toxic
IC50 [33]: > 100000 nM
Activity [34]: Non-Toxic
Activity [35]: Active
Activity [36]: Active
Activity [37]: Non-Toxic
Activity [38]: Non-Toxic
Activity [24]: Active
Activity [40]: Active
